Experimental data reported in ChEMBL document CHEMBL5725612, “Pyridone FabI inhibitors and uses thereof” (2018).

Target: T1, Enoyl-[acyl-carrier-protein] reductase [NADPH] FabI (Staphylococcus aureus, UniProt Q6GI75)
T1 sequence (Q6GI75 whole entry): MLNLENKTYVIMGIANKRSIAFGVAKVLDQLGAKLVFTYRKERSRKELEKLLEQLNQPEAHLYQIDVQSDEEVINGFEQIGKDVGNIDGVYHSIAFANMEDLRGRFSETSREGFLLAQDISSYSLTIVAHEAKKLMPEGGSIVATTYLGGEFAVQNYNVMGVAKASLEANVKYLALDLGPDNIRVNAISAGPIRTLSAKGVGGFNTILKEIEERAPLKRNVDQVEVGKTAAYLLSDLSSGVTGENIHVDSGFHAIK
Test: Tight-binding assay: Kinetics were performed on a Cary 100 spectrophotometer (Varian) at 20° C. Reaction velocities were measured by monitoring the oxidation of NAD(P)H to NAD(P)+ at 340 nm (Figure US10071965-20180911-P00001=6220 M−1 cm−1). For saFabI, the reaction mixture was identical to that described previously for progress curve experiments (Schiebel et al. (2012). Structure 20:802-13). For ecFabI, the final reaction mixture contained ecFabI (75 nM), trans-2-butenoyl-CoA (800 μM; Sigma and Advent Bio), NADH (300 μM; Sigma), NAD+ (400 μM; Sigma), and inhibitor (2 v/v % DMSO) in 50 mM potassium phosphate, pH 7.5, 150 mM NaCl, 8 v/v % glycerol. For InhA, the final reaction mixture contained InhA (100 nM), trans-2-octenoyl-CoA (200 μM), NADH (250 μM), NAD+ (200 μM), and inhibitor (2 v/v % DMSO) in 30 mM PIPES, pH 6.8, 150 mM NaCl, 1 mM EDTA, 8 v/v % glycerol. The resulting curves were fit to the Morrison and Walsh integrated rate equation (Equation 1) (Morrison et al.

Oc1ccccc1Oc1ccccc1
Ki: 24.5 µM
